Test results reported in US20030232340A1 (priority 2002, published 2003).

Target: T1, Concanavalin A (Canavalia ensiformis, UniProt P02866)
T1 construct: purchased Sigma C-5275
Assay: Homogeneous cubic phase dispersion assay: displacement of biotinylated mannotriose-avidin/HRP, Dextran Blue detection
Type: binding
Conditions: 500 microliters of saturated solution added to 3.0 ml
Procedure: Experimental Results—A cubic phase was first prepared by mixing 0.752 grams of Pluronic P123 (an insoluble surfactant), 0.705 grams of linalool, and 0.703 grams of water. An amount of 1.005 grams of this cubic phase was put in a glass flask together with 0.054 grams of the rhamnolipid surfactant JBR-99 (Jeneil Biosurfactant, Inc.) and 35 ml of pH 4.5 acetate buffer containing 4 mM MnCl2 and 4 mM CaCl2. The flask was then sonicated to disperse the cubic phase. Following this, the dispersion was microfluidized in a model 110S Microfluidizer (Microfluidics, Inc.) to a particle size that was fine enough where the absorbance measured on an Ultrospec 3000 UV-Vis spectrometer, at a wavelength of 620 nm, was about 0.2 absorbance units.
The following reagents were then added to 2 ml of the cubic phase dispersion: […]
After the addition of the Dextran Blue-based Detection System, absorbance readings at 620 nm were monitored continuously. After the readings stabilized at 0.40 absorbance units, 500 microliters of Displacement Solution were added. […]
Upon addition of this alpha methylmannoside—the analyte—the absorbance dropped from 0.40 to 0.26 absorbance units. […] The majority of the decrease in absorbance was due to the enzymatic action of displaced HRP on the Dextran Blue.

SMILES: COC1O[C@H](CO)[C@@H](O)[C@H](O)[C@@H]1O (stereo partly drawn) [alpha methylmannoside]
- decrease in absorbance at 620 nm (14% expected from dilution alone): 35%
- absorbance at 620 nm after addition of analyte (reading before addition 0.40): 0.26 absorbance units
